Experimental data: ChEMBL document CHEMBL1146585, “Copacamphane, picrotoxane, and alloaromadendrane sesquiterpene glycosides and phenolic glycosides from Dendrobium moniliforme” (J Nat Prod, 2003)
Activity calls are given as the source filed them. The rule behind the calls is not given here.

Tests used:
B-cell = assay: Immunoregulatory activity assessed as stimulation of B cell proliferation at 10 uM; assay type: functional, cell-based
T-cell = assay: Immunoregulatory activity assessed as inhibition of T cell proliferation at 0.1 uM; assay type: functional, cell-based
[1] = Cytotoxicity against T cell; assay type: cell-based

| SMILES | Activity (B-cell) | Activity (T-cell) | Activity [1] |
| --- | --- | --- | --- |
| COc1cc(CO)ccc1O[C@@H]1O[C@H](CO)[C@@H](O)[C@H](O)[C@H]1O [VANILLOLOSIDE] | Active | Active | Non-toxic |
| CC(C)(O)[C@H]1C[C@H](O[C@@H]2O[C@H](CO)[C@@H](O)[C@H](O)[C@H]2O)[C@@]2(C)[C@@H]3CC[C@]2(C)C(=O)[C@@H]31 [DENDROMONILISIDE A] | Active | Active | Non-toxic |
| CC(C)[C@H]1[C@@H]2OC(=O)[C@H]1[C@H]1C[C@H](O[C@@H]3O[C@H](CO)[C@@H](O)[C@H](O)[C@H]3O)[C@]3(CO3)[C@@]1(C)[C@H]2O [DENDROMONILISIDE C] | Active | Active | Non-toxic |
